Assay results published in patent publication US12180187B2, “1-phenyl-5-azinylpyrazolyl-3-oxyalkyl acids and their use for controlling unwanted plant growth” (BAYER AKTIENGESELLSCHAFT, priority 2019, dated 2024).

What was measured:
MATIN [1] = assay: Post-emergence action against MATIN, 1.28 kg/ha; assay type: in vivo, Tripleurospermum inodorum (Matricaria inodora); conditions: dosage 1280 g/ha, visual rating about 3 weeks after treatment vs untreated controls (100% = plants died)
Outline: (§1)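 Greenhouse pot test, sandy loam; weeds sprayed post-emergence at one-leaf stage (2–3 weeks after sowing) with WP or EC formulation plus 0.5% additive, 600 l/ha water. Visual rating after about 3 weeks versus untreated controls, 100% = plants dead, 0% = like control.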

DIGSA [2] = assay: Pre-emergence action against DIGSA, 1280 g/ha; assay type: in vivo, Digitaria sanguinalis; conditions: visual scoring after about 3 weeks vs untreated controls, 100% = plants have died, 0% = like control plants
Outline: (§2)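 Compound applied as WP or EC in aqueous spray (0.5% additive, 600 L/ha) to the surface of sandy loam covering freshly sown seeds. After about 3 weeks under good greenhouse conditions, damage is given as visual percentage, 100% meaning plant death.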

POAAN [3] = assay: Post-emergence action against POAAN, 1.28 kg/ha; assay type: in vivo, Poa annua; conditions: dosage 1280 g/ha, visual rating about 3 weeks after treatment vs untreated controls
Outline: as §1

VERPE [4] = assay: Post-emergence action against VERPE, 1.28 kg/ha; assay type: in vivo, Veronica persica; conditions: dosage 1280 g/ha, visual rating about 3 weeks after treatment vs untreated controls (100% = plants died)
Outline: as §1

MATIN [5] = assay: Pre-emergence action against MATIN, 1280 g/ha; assay type: in vivo, Tripleurospermum inodorum (Matricaria inodora); conditions: scored visually after about 3 weeks vs untreated controls (100% = plants have died)
Outline: as §2

ABUTH [6] = assay: Post-emergence action against ABUTH, 1.28 kg/ha; assay type: in vivo, Abutilon theophrasti; conditions: dosage 1280 g/ha, visual rating about 3 weeks after treatment vs untreated controls (100% = plants died)
Outline: as §1

AMARE [7] = assay: Pre-emergence action against AMARE, 1280 g/ha; assay type: in vivo, Amaranthus retroflexus; conditions: scored visually after about 3 weeks vs untreated controls (100% = plants have died)
Outline: as §2

LOLRI [8] = assay: Pre-emergence action against LOLRI, 1280 g/ha; assay type: in vivo, Lolium rigidum; conditions: visual scoring after about 3 weeks vs untreated controls, 100% = plants have died, 0% = like control plants
Outline: as §2

SETVI [9] = assay: Pre-emergence action against SETVI, 1280 g/ha; assay type: in vivo, Setaria viridis; conditions: visual scoring after about 3 weeks vs untreated controls, 100% = plants have died, 0% = like control plants
Outline: as §2

AMARE [10] = assay: Post-emergence action against AMARE, 1.28 kg/ha; assay type: in vivo, Amaranthus retroflexus; conditions: dosage 1280 g/ha, visual rating about 3 weeks after treatment vs untreated controls (100% = plants died)
Outline: as §1

DIGSA [11] = assay: Post-emergence action against DIGSA, 1.28 kg/ha; assay type: in vivo, Digitaria sanguinalis; conditions: dosage 1280 g/ha, visual rating about 3 weeks after treatment vs untreated controls
Outline: as §1

ABUTH [12] = assay: Pre-emergence action against ABUTH, 1280 g/ha; assay type: in vivo, Abutilon theophrasti; conditions: scored visually after about 3 weeks vs untreated controls (100% = plants have died)
Excerpt: 1. Pre-Emergence Herbicidal Effect and Crop Plant Compatibility a) Seeds of mono- and dicotyledonous weed plants are placed in plastic pots in sandy loam soil (doubly sown with one species each of mono- or dicotyledonous weed plants per pot) and covered with soil. The compounds of the invention, formulated in the form of wettable powders (WP) or as emulsion concentrates (EC), are then applied onto the surface of the covering soil as aqueous suspension or emulsion with addition of 0.5% additive at a water application rate equivalent to 600 litres per hectare. After the treatment, the pots are placed in a greenhouse and kept under good growth conditions for the trial plants. After about 3 weeks, the effect of the preparations is scored visually in comparison with untreated controls as percentages. For example, 100% activity=the plants have died, 0% activity=like control plants. 1. Pre-Emergence Effectiveness Tables 1 to 12 below show the effects of selected compounds of the general formula (I) according to Tables 1 and 2 on various harmful plants and at an application rate corresponding to 1280 g/ha, which were obtained by the experimental procedure mentioned above.

POAAN [13] = assay: Pre-emergence action against POAAN, 1280 g/ha; assay type: in vivo, Poa annua; conditions: visual scoring after about 3 weeks vs untreated controls, 100% = plants have died, 0% = like control plants
Outline: as §2

VERPE [14] = assay: Pre-emergence action against VERPE, 1280 g/ha; assay type: in vivo, Veronica persica; conditions: scored visually after about 3 weeks vs untreated controls (100% = plants have died)
Outline: as §2

STEME [15] = assay: Pre-emergence action against STEME, 1280 g/ha; assay type: in vivo, Stellaria media; conditions: scored visually after about 3 weeks vs untreated controls (100% = plants have died)
Outline: as §2

ALOMY [16] = assay: Pre-emergence action against ALOMY, 1280 g/ha; assay type: in vivo, Alopecurus myosuroides; conditions: visual scoring after about 3 weeks vs untreated controls, 100% = plants have died, 0% = like control plants
Outline: as §2

ALOMY [17] = assay: Post-emergence action against ALOMY, 1.28 kg/ha; assay type: in vivo, Alopecurus myosuroides; conditions: dosage 1280 g/ha, visual rating about 3 weeks after treatment vs untreated controls
Outline: as §1

ECHCG [18] = assay: Pre-emergence action against ECHCG, 1280 g/ha; assay type: in vivo, Echinochloa crus-galli; conditions: visual scoring after about 3 weeks vs untreated controls, 100% = plants have died, 0% = like control plants
Outline: as §2

KCHSC [19] = assay: Pre-emergence action against KCHSC, 1280 g/ha; assay type: in vivo, Bassia scoparia; conditions: scored visually after about 3 weeks vs untreated controls (100% = plants have died)
Outline: as §2

ECHCG [20] = assay: Post-emergence action against ECHCG, 1.28 kg/ha; assay type: in vivo, Echinochloa crus-galli; conditions: dosage 1280 g/ha, visual rating about 3 weeks after treatment vs untreated controls
Outline: as §1

STEME [21] = assay: Post-emergence action against STEME, 1.28 kg/ha; assay type: in vivo, Stellaria media; conditions: dosage 1280 g/ha, visual rating about 3 weeks after treatment vs untreated controls (100% = plants died)
Outline: as §1

SETVI [22] = assay: Post-emergence action against SETVI, 1.28 kg/ha; assay type: in vivo, Setaria viridis; conditions: dosage 1280 g/ha, visual rating about 3 weeks after treatment vs untreated controls
Outline: as §1

KCHSC [23] = assay: Post-emergence action against KCHSC, 1.28 kg/ha; assay type: in vivo, Bassia scoparia; conditions: dosage 1280 g/ha, visual rating about 3 weeks after treatment vs untreated controls (100% = plants died)
Outline: as §1

LOLRI [24] = assay: Post-emergence action against LOLRI, 1.28 kg/ha; assay type: in vivo, Lolium rigidum; conditions: dosage 1280 g/ha, visual rating about 3 weeks after treatment vs untreated controls
Outline: as §1

SMILES | Post-emergence action against MATIN (MATIN [1]) [%] | Pre-emergence action against DIGSA (DIGSA [2]) [%] | Post-emergence action against POAAN (POAAN [3]) [%] | Post-emergence action against VERPE (VERPE [4]) [%] | Pre-emergence action against MATIN (MATIN [5]) [%] | Post-emergence action against ABUTH (ABUTH [6]) [%] | Pre-emergence action against AMARE (AMARE [7]) [%] | Pre-emergence action against LOLRI (LOLRI [8]) [%] | Pre-emergence action against SETVI (SETVI [9]) [%] | Post-emergence action against AMARE (AMARE [10]) [%] | Pre-emergence action against ABUTH (ABUTH [12]) [%] | Pre-emergence action against POAAN (POAAN [13]) [%] | Pre-emergence action against VERPE (VERPE [14]) [%] | Pre-emergence action against STEME (STEME [15]) [%] | Post-emergence action against ALOMY (ALOMY [17]) [%] | Pre-emergence action against ECHCG (ECHCG [18]) [%] | Pre-emergence action against KCHSC (KCHSC [19]) [%] | Post-emergence action against ECHCG (ECHCG [20]) [%] | Post-emergence action against STEME (STEME [21]) [%] | Post-emergence action against KCHSC (KCHSC [23]) [%] | further results
O=C(COc1nn(-c2ccccc2F)c(-c2ccc(F)nc2)c1Br)NS(=O)(=O)CC(F)(F)F [Example X-003] | 100 | 100 | 100 | 90 | 100 | 90 | 100 | 100 | 100 | 90 | 90 | 100 | 100 | 100 | 100 | 100 | 90 | 90 | 90 |  | Post-emergence action against DIGSA (DIGSA [11]): 100%; Pre-emergence action against ALOMY (ALOMY [16]): 90%
O=C(O)C1CCCN1C(=O)COc1nn(-c2ccccc2F)c(-c2cncc(F)c2)c1Br (centres unmarked) [Example X-039] | 100 | 90 | 100 | 100 | 100 | 100 | 100 | 90 | 90 | 90 | 90 | 100 | 100 | 90 | 90 | 90 | 100 | 90 | 100 | 90 | Post-emergence action against DIGSA (DIGSA [11]): 90%; Post-emergence action against SETVI (SETVI [22]): 100%; Pre-emergence action against ALOMY (ALOMY [16]): 90%
C=CCNC(=O)COc1nn(-c2ccccc2F)c(-c2cncnc2)c1Br [IX-001] | 90 | 100 |  | 100 | 100 | 90 | 100 | 100 | 100 |  | 100 | 100 | 100 | 100 |  | 90 | 100 | 90 | 100 | 90 | Post-emergence action against DIGSA (DIGSA [11]): 100%
O=C(O)COc1nn(-c2ccccc2F)c(-c2ccc(F)nc2)c1C(F)(F)F [VII-030] |  | 90 | 100 | 90 | 90 | 90 | 100 | 100 | 100 | 90 | 90 | 100 | 90 | 100 | 100 | 90 | 90 | 100 | 100 | 90 | 
COC(=O)[C@@H](C)Oc1nn(-c2cc(F)ccc2F)c(-c2ccc(F)nc2)c1C#N [VII-099] | 100 | 100 | 100 | 100 | 100 | 90 | 100 | 100 | 100 | 100 | 90 | 100 | 100 | 100 | 100 | 100 | 100 |  | 100 | 100 | Post-emergence action against DIGSA (DIGSA [11]): 100%; Pre-emergence action against ALOMY (ALOMY [16]): 90%; Post-emergence action against LOLRI (LOLRI [24]): 100%
COC(=O)COc1nn(-c2c(F)cccc2F)c(-c2ccc(F)nc2)c1Br [VII-109] | 100 | 100 | 100 | 100 | 100 | 100 | 100 | 100 | 100 | 100 | 90 | 100 | 100 | 100 | 100 | 100 |  | 100 | 100 | 90 | Post-emergence action against DIGSA (DIGSA [11]): 100%; Post-emergence action against SETVI (SETVI [22]): 100%; Pre-emergence action against ALOMY (ALOMY [16]): 100%; Post-emergence action against LOLRI (LOLRI [24]): 100%
COC(=O)[C@@H](C)Oc1nn(-c2ccccc2F)c(-c2ccc(F)nc2)c1Br [VII-123-a] | 90 | 100 | 100 | 90 | 100 | 90 | 100 | 100 | 100 | 90 | 90 | 100 | 100 | 100 | 100 | 100 | 100 | 100 | 100 | 90 | Post-emergence action against SETVI (SETVI [22]): 100%; Pre-emergence action against ALOMY (ALOMY [16]): 100%; Post-emergence action against LOLRI (LOLRI [24]): 100%
